“Also recorded” adds a separate entry of the source.
Experiments:
[1] = Particle size distribution (Malvern MASTERSIZER 2000); format: physicochemical; conditions: sterilized drug substance from Shouguang Fukang Pharma Co.; average of three measurements
Protocol: Particle size distribution may be measured, for example, using a Malvern MASTERSIZER 2000 instrument. After 24 hours storage, a particle size distribution (PSD) was performed using a Malvern MASTERSIZER 2000. The measuring range of the instrument is 0.02-2000 μm, with refractive index dispersant 1.375—hexanes, obscuration range 5-20%, sample/background measurement time=1, 5000 sample/background measurement snaps, and manual stirring speed 2000 rpm.

[2] = Pharmacokinetics after multiple intramuscular doses to horses
Protocol: Eighteen adult horses were randomized into three equal treatment groups and assigned one of three doses: 2 mg/kg (1×), 6 mg/kg (3×), or 10 mg/kg (5×). Doses were administered intramuscularly. Each horse received the assigned dose three times, seven days apart. Blood samples were collected at 1, 2, 4, 6, 8, 12, 24, 36, 48, 72, 96, 120, 144 hrs after each dosing, then every 48 hours until Day 28. Esomeprazole was quantified by LC-MS/MS. Data were subjected to noncompartmental analysis.

SMILES | Median particle size [1] [μm] | Dose normalization of Cmax and area under the curve (kinetic linearity) ([2]; across 2, 6 and 10 mg/kg intramuscular) | Time for which drug was detectable ([2]; after the final dose in the 5× group (10 mg/kg intramuscular)) [h] | Mean half-life ([2]; horse, in vivo, im, 10 mg/kg) [h] | half-life ([2]; horse, in vivo, im, 10 mg/kg, Mean half-life) [h] | Tolerability ([2]; in vivo) | Absorption from the injection site ([2]; intramuscular, horses) | Injection site reaction ([2]; one horse in the 3× group (6 mg/kg intramuscular))
COc1ccc2nc([S@@+]([O-])Cc3ncc(C)c(OC)c3C)[nH]c2c1 [esomeprazole sodium] | 18.84 |  |  |  |  |  |  | 
COc1ccc2[n-]c([S@@+]([O-])Cc3ncc(C)c(OC)c3C)nc2c1.COc1ccc2[n-]c([S@@+]([O-])Cc3ncc(C)c(OC)c3C)nc2c1.O.O.[Mg+2] [esomeprazole magnesium dihydrate] | 2.01 |  |  |  |  |  |  | 
COc1ccc2nc([S@@+]([O-])Cc3ncc(C)c(OC)c3C)[nH]c2c1 [esomeprazole] |  | linear pharmacokinetics; also recorded: Linear kinetic properties were observed | 96 ± 26.29 | 12 to 24 | 11.6 to 24.5 | well tolerated | rapidly absorbed | A single mild, self-resolving, injection site reaction

From patent US20220354836A1, “Equine Esomeprazole Formulations and Methods of Use” (priority 2019, published 2022)
